Test results published in paper PMC7676998 (Journal of medicinal chemistry, 2019).
“And” between values parts separate entries of the source, which are not always exact repeats. Equal values may be shown once. Read-outs that look alike come from different tables or passages of the source.

Assays:
[1] = test system: Sprague-Dawley rats; details: rat, in vivo, iv
[2] = target: MOP (Homo sapiens, UniProt P35372); type: cell-based
[3] = test system: human opioid receptors (MOP); details: BRET assay; in words ref 14; cited from earlier work
[4] = test system: rats; details: Sprague-Dawley, rat, in vivo
[5] = target: KOP (Homo sapiens, UniProt P41145); assay: cell-based; type: cell-based
Chain of KOP (P41145 whole entry): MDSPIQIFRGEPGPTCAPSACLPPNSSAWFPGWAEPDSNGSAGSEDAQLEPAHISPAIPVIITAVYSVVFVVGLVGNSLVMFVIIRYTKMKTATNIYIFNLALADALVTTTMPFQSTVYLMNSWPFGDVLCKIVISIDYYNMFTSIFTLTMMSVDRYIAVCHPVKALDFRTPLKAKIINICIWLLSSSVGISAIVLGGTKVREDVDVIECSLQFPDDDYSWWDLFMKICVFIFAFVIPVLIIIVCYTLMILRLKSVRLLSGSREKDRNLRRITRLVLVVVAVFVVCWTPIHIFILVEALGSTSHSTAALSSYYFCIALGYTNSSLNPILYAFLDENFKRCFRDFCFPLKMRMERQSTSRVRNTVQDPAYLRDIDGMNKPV

[6] = test system: guinea pig ileum; details: in words ref 15; cited from earlier work
[7] = test system: Sprague-Dawley rats; details: rat, in vivo, iv; remark: listed apart in the source
[8] = target: nociceptin NOP (ORL1) (Homo sapiens, UniProt P41146); assay: Radioligand binding, nociceptin receptor
Chain of nociceptin NOP (ORL1) (P41146 whole entry): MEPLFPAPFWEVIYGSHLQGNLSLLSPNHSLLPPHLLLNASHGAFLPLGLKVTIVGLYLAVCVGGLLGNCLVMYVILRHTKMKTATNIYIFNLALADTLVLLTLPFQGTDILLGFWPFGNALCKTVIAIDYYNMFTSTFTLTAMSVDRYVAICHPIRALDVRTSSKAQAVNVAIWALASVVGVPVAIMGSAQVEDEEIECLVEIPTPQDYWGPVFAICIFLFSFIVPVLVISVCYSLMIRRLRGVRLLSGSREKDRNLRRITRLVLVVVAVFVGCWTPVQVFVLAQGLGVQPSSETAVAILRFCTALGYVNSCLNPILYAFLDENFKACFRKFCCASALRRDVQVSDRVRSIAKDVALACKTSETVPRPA

[9] = target: T1, adrenergic α1A receptor (Homo sapiens, UniProt P35348); assay: Radioligand binding, adrenergic α1A
T1 sequence (P35348 1-466): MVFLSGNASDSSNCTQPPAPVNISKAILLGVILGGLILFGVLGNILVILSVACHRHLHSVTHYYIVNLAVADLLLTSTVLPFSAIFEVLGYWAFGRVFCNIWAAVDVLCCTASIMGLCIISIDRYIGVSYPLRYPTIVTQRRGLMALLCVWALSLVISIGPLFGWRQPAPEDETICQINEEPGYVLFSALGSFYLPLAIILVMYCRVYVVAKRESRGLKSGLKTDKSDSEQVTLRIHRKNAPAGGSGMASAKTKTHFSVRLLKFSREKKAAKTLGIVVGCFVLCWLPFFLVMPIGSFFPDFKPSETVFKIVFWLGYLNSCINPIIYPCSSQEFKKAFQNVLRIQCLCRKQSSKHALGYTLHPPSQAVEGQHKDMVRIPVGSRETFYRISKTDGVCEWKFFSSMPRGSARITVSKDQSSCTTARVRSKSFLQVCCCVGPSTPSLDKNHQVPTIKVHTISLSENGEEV

[10] = target: T2, adrenergic α2B receptor (Homo sapiens, UniProt P18089); type: binding
T2 sequence (P18089 1-450): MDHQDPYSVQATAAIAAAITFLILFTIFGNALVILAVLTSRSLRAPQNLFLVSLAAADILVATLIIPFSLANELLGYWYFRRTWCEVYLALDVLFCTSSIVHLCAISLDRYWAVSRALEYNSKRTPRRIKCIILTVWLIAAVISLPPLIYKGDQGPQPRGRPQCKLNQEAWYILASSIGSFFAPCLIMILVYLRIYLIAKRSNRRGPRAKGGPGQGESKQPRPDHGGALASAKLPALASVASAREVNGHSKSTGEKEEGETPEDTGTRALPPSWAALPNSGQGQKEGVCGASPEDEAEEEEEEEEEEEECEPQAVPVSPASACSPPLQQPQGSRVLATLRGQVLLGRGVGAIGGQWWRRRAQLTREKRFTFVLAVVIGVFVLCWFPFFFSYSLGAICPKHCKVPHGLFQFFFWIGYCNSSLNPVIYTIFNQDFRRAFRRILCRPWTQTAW

[11] = target: delta opioid receptor (DOP) (Homo sapiens, UniProt P41143); assay: Radioligand binding, delta opioid receptor
Chain of delta opioid receptor (DOP) (P41143 whole entry): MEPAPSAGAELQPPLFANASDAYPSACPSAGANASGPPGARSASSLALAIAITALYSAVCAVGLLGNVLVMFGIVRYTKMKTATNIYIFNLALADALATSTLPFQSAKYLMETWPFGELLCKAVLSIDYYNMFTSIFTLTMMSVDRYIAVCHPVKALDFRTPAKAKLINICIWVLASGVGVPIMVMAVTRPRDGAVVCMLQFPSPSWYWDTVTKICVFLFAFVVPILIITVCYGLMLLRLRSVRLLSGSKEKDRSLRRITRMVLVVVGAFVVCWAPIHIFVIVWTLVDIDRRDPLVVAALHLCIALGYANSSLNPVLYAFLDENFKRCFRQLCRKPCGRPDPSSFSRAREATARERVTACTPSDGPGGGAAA

[12] = target: mu opioid receptor (MOP) (Homo sapiens, UniProt P35372); type: binding
Chain of mu opioid receptor (MOP) (P35372 whole entry): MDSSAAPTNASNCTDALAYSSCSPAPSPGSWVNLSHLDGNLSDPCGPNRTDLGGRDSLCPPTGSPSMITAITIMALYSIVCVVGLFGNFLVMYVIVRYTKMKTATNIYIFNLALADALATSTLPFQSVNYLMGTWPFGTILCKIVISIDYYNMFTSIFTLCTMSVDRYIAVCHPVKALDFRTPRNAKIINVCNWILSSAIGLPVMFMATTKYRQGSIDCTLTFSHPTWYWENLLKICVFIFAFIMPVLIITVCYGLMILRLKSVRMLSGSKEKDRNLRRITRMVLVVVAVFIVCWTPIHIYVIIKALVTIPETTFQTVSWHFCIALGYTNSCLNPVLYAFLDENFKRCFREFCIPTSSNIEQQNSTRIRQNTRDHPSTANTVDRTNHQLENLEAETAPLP

[13] = target: T3, adrenergic α2A receptor (Homo sapiens, UniProt P08913); assay: Radioligand binding, adrenergic α2A
T3 sequence (P08913 1-465): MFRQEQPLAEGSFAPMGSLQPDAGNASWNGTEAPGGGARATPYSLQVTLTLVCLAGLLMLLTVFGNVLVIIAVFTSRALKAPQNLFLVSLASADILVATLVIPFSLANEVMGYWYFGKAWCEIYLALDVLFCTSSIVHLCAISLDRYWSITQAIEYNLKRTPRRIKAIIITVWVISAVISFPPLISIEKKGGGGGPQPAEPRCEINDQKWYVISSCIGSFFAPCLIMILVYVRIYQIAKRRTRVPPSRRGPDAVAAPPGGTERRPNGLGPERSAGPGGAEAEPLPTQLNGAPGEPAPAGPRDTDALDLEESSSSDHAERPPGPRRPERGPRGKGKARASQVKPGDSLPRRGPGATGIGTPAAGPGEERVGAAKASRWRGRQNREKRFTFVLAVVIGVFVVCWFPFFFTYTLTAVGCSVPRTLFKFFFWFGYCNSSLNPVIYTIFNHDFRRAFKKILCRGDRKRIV

[14] = target: T4, adrenergic α1B receptor (Homo sapiens, UniProt P35368); assay: Radioligand binding, adrenergic α1B
T4 sequence (P35368 1-520): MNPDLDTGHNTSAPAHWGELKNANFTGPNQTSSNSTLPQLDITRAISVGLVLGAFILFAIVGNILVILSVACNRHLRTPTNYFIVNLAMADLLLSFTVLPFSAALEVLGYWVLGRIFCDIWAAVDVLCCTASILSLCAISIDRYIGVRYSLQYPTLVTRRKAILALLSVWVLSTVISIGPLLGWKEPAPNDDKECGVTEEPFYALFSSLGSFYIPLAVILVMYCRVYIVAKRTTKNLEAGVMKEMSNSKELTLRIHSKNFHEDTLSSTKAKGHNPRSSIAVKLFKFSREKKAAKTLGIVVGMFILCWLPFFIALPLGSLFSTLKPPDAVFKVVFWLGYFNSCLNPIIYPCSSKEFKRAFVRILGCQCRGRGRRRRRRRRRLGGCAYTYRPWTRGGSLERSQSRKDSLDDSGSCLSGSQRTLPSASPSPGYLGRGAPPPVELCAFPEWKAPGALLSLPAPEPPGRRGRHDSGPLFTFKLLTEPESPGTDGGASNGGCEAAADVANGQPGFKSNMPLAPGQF

[15] = target: T5, adrenergic α1D receptor (Homo sapiens, UniProt P25100); assay: Radioligand binding, adrenergic α1D
T5 sequence (P25100 1-572): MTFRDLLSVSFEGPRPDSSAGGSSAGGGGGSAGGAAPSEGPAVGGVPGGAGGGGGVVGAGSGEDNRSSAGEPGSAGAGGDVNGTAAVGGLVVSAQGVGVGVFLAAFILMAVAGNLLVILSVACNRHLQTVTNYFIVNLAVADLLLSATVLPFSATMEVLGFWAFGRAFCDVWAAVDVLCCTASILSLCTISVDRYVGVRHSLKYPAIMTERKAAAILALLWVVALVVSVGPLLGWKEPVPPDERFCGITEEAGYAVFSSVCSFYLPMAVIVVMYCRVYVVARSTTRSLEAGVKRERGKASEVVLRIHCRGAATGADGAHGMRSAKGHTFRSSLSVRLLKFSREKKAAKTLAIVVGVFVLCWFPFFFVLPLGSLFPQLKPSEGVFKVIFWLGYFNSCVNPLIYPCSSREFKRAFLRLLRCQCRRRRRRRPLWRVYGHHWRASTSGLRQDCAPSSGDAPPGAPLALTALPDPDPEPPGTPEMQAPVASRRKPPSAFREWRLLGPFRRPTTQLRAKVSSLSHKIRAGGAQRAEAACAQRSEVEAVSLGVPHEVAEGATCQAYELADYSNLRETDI

[16] = target: DOP (Homo sapiens, UniProt P41143); type: cell-based
Chain of DOP (P41143 whole entry): as the sequence (P41143 whole entry) above

[17] = test system: MOP; details: read-out: EC50 at MOP; other study ref 17; cited from earlier work
[18] = target: T6, α1A adrenergic receptor (Homo sapiens, UniProt P35348); type: cell-based
T6 sequence (P35348 1-466): T1 sequence (P35348 1-466)

[19] = target: T7, α2C adrenergic receptor (Homo sapiens, UniProt P18825); type: cell-based
T7 sequence (P18825 1-462): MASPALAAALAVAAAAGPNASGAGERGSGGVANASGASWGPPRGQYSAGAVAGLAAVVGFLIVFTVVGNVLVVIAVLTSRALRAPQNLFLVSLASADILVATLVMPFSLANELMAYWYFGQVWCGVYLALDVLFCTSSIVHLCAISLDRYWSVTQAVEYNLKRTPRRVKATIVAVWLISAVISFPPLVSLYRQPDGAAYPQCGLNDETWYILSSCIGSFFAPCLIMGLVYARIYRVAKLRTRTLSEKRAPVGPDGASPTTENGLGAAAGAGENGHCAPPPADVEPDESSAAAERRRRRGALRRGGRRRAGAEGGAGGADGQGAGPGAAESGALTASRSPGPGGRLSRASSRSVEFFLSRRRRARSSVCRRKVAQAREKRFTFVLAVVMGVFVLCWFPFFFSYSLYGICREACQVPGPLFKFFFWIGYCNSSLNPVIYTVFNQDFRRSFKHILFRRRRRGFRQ

[20] = target: T8, α1D adrenergic receptor (Homo sapiens, UniProt P25100); type: cell-based
T8 sequence (P25100 1-572): T5 sequence (P25100 1-572)

[21] = target: T9, α1B adrenergic receptor (Homo sapiens, UniProt P35368); type: cell-based
T9 sequence (P35368 1-520): T4 sequence (P35368 1-520)

Chain of MOP (Homo sapiens, UniProt P35372) (P35372 whole entry): as the sequence (P35372 whole entry) above

| SMILES | functional effect at MOP [2] | functional effect at KOP [5] | percent displacement of bound radioligand, nociceptin NOP (ORL1) ([8]; 100 nM test compound) [%] | percent displacement of bound radioligand, adrenergic α1A ([9]; 100 nM test compound) [%] | percent displacement of bound radioligand, adrenergic α1A ([9]; 10,000 nM test compound) [%] | percent displacement of bound radioligand, adrenergic α2B ([10]; 100 nM test compound) [%] | percent displacement of bound radioligand, adrenergic α2B ([10]; 10,000 nM test compound) [%] | percent displacement of bound radioligand, opioid δ ([11]; 10,000 nM test compound) [%] | percent displacement of bound radioligand, opioid μ ([12]; 100 nM test compound) [%] | percent displacement of bound radioligand, opioid μ ([12]; 10,000 nM test compound) [%] | percent displacement of bound radioligand, adrenergic a2A ([13]; 100 nM test compound) [%] | percent displacement of bound radioligand, adrenergic a2A ([13]; 10,000 nM test compound) [%] | percent displacement of bound radioligand, nociceptin NOP (ORL1) ([8]; 10,000 nM test compound) [%] | percent displacement of bound radioligand, adrenergic α1B ([14]; 100 nM test compound) [%] | percent displacement of bound radioligand, adrenergic α1B ([14]; 10,000 nM test compound) [%] | percent displacement of bound radioligand, adrenergic α1D ([15]; 100 nM test compound) [%] | percent displacement of bound radioligand, adrenergic α1D ([15]; 10,000 nM test compound) [%] | other results |
| --- | --- | --- | --- | --- | --- | --- | --- | --- | --- | --- | --- | --- | --- | --- | --- | --- | --- | --- |
| CC[C@@H]1CN2CCc3c([nH]c4cccc(OC)c34)[C@H]2C[C@@H]1/C(=C\OC)C(=O)OC [speciociliatine] | partial agonists | no agonist or antagonist effects | −14.9 |  |  |  |  |  |  |  |  |  |  |  |  |  |  | change in body temperature (hypothermia) [1]: produced hypothermia; agonist / antagonist activity at human opioid receptors [3]: no measurable agonist activity; lethality (rats dead / rats tested) [4]: 5/21; inhibition of electrically induced twitch contraction [6]: maximum inhibition of electrically induced twitch contraction of guinea pig ileum similar to morphine; antinociceptive effects in hot plate test ([7]; 10 mg/kg): had antinociceptive effects |
| CC[C@@H]1CN2CCc3c([nH]c4ccccc34)[C@@H]2C[C@@H]1/C(=C\OC)C(=O)OC [corynantheidine] |  |  | −1.3 | 45.9 | 100.5 | 8.5 | 79.9 | 31.4 | 39.6 | 96.8 | 27.2 | 95.1 | 27.0 | 19.6 | 91.0 | 73.5 | 101.2 | percent displacement of bound radioligand, opioid δ ([11]; 100 nM test compound): 8.6%; fold higher affinity at the α−1D receptor than mitragynine ([15]; ratio of Ki versus mitragynine): 131 fold |
| CC[C@@H]1CN2CC[C@@]3(O)C(=Nc4cccc(OC)c43)[C@@H]2C[C@@H]1/C(=C\OC)C(=O)OC [7-hydroxymitragynine] | full agonist | competitive antagonist | −1.6 | 10.1 | 3.5 |  |  |  |  |  | −6.7 | −5.4 | 3.4 | 5.9 | −4.8 | −1.9 | 13.5 | functional effect at DOP [16]: competitive antagonist; Kb [5]: 115 nM; percent displacement of bound radioligand, opioid μ [12]: 81.8% and 100.7%; effect of naltrexone on antinociception ([7]; 0.1 mg/kg): reversed; EC50 [17]: 53 ± 4 nM |
| CC[C@@H]1CN2CCc3c([nH]c4cccc(O)c34)[C@@H]2C[C@@H]1/C(=C\OC)C(=O)OC [9-hydroxycorynantheidine] |  |  | −2.9 | 16.4 | 62.3 | −5.7 | 14.6 | 25.3 | 29.3 | 95.4 | −10.2 | 20.0 | 28.9 | −4.4 | 29.0 | 12.4 | 66.3 |  |
| CC[C@@H]1CN2CCc3c([nH]c4cccc(OC)c34)[C@@H]2C[C@@H]1/C(=C\OC)C(=O)OC [mitragynine] | partial agonists |  |  |  |  |  |  |  |  |  |  |  |  | −12.5 |  |  |  | agonist effect at α1A [18]: partial agonist; antagonist effect at α−1A [18]: competitive antagonist effects; antagonist effect at α−2C [19]: competitive antagonist effects; agonist effect at α1D [20]: partial agonist; antagonist effect at α−1D [20]: competitive antagonist effects; antagonist effect at α−1B [21]: competitive antagonist effects |
